Assay: Aqueous stability upon storage in aqueous solution, evaluated by HPLC
Type: physicochemical
Description: The compound of Formula (IIIa):
[drawing 31] was selected as an exemplary compound for evaluation of aqueous stability. In particular, the aqueous stability of the compound of Formula (Ma) upon storage in aqueous solution at several temperatures for several weeks was evaluated by HPLC using the following conditions: Column: BioWidePore C18 (SUPELCO), 4.6 mm×25 cm, 5 μm Mobile Phase A: 0.1% (V/V) trifluoroacetic acid (TFA) in di-water, 0.8 micron filtered Mobile Phase B: 100% acetonitrile, 0.8 micron filtered Column temp: Ambient Injection volume: 30 μL UV Detection: 214 nm Flow: 1.0 mL/min Run time: 25 minutes Sample diluent: 50% acetonitrile in di-water Gradient condition: See Table 1

% Recovery vs. T0 (storage 25° C., T0)	% Recovery vs. T0 (storage 25° C., Week-1)	% Recovery vs. T0 (storage 25° C., Week-2)	% Recovery vs. T0 (storage 25° C., Week-4)	% Recovery vs. T0 (storage 40° C., T0)	% Recovery vs. T0 (storage 40° C., Week-1)	% Recovery vs. T0 (storage 40° C., Week-2)	% Recovery vs. T0 (storage 40° C., Week-4)	% Recovery vs. T0 (storage 60° C., T0)	% Recovery vs. T0 (storage 60° C., Week-1)	% Recovery vs. T0 (storage 60° C., Week-2)	% Recovery vs. T0 (storage 60° C., Week-4)	Structure (SMILES)
100.0%	100.8%	100.4%	102.6%	100.0%	100.6%	99.8%	101.8%	100.0%	99.0%	97.4%	96.3%	CCCCC[C@H](O)c1ccc(N2C(=O)CC[C@@H]2CCCc2ccc(C(=O)OC[C@@H](O)CO)s2)cc1 [Formula (IIIa), (S)-2,3-dihydroxypropyl 5-(3-((S)-1-(4-((S)-1-hydroxyhexyl)phenyl)-5-oxopyrrolidin-2-yl)propyl)thiophene-2-carboxylate]
100.0%	100.1%	101.0%	101.6%	100.0%	100.1%	100.1%	98.6%	100.0%	99.3%	97.5%	95.6%	O=C(OC[C@@H](O)CO)c1ccc(CCC[C@@H]2[C@@H](CCc3cc(Cl)cc(Cl)c3)[C@H](O)C[C@H]2Cl)s1 [Standard]

— patent publication US10329284B2, “Ester prodrugs of gamma-lactams and their use” (ALLERGAN, INC., priority 2014, dated 2019)
